Assay results published in patent EP0302626A2, “Insecticidal compounds” (IMPERIAL CHEMICAL INDUSTRIES PLC, priority 1987, dated 1989).
“And” between values parts separate entries of the source, which are not always exact repeats. Equal entries are not always repeated. Where two headings read alike, the source gives them in different places.

Experiments:
Format in all cases: in vivo
[1] = system: Nephotettix cincticeps (green leaf hopper - nymphs); experiment: insecticidal mortality test, contact, rice plant; conditions: read-out: grading of mortality, NC
Experimental: (§1) The activity of the Product was determined using a variety of insect pests. The Product was used in the form of liquid preparations containing 500, 250 or 100 parts per million (ppm) by weight of the Product. The preparations were made by dissolving the Product in acetone and diluting the solutions with water containing 0.01% by weight of a wetting agent sold under the trade name "LlSSAPOL" NX until the liquid preparations contained the required concentration of the Product. "Lissapol" is a Registered Trade Mark.
(§2) The test procedure adopted with regard to each pest was basically the same and comprised supporting a number of the pests on a medium which was usually a host plant or a foodstuff on which the pests feed, and treating either or both the pests and the medium with the preparations. The mortality of the pests was then assessed at periods usually varying from one to three days after the treatment.
(§3) The results of the tests are given in Table III for each of the Products, at the rate in parts per million given in the second column as a grading of mortality designated as A, B or C wherein A indicates 80-100% mortality, B indicates 50-79% mortality and C indicates less than 50% mortality.
(§4) In Table 111 the pest organism used is designated by a letter code and the pests species, the support medium or food, and the type and duration of test is given in Table II.

[2] = system: Tetranychus urticae (spider mites - adult); experiment: insecticidal mortality test, contact, French bean leaf; conditions: for mortality at 100 ppm: Tetranychus urticae, 72 h, read-out: grading of mortality, Tua, 100 ppm, 3 days
Experimental: as §1, §2, §3, §4

[3] = system: Diabrotica balteata (rootworm larvae); experiment: insecticidal mortality test, residual, filter paper/maize seed; conditions: read-out: grading of mortality, DB
Experimental: as §1, §2, §3, §4

[4] = system: Myzus persicae (aphids); experiment: insecticidal mortality test, contact, Chinese Cabbage leaf; conditions: 72 h, read-out: grading of mortality, MP
Experimental: as §1, §2, §3, §4

[5] = system: Blattella germanica (cockroach nymphs); experiment: insecticidal mortality test, residual, plastic pot; conditions: 72 h, read-out: grading of mortality, BG
Experimental: as §1, §2, §3, §4

[6] = system: Blattella germanica (adult males); experiment: Blattella germanica knockdown test; conditions: for KT₅₀: time taken to knockdown 50% of test insects; for KT₅₀ / KT₉₀: Tetramethrin: mean of 3 assessments; for KT₉₀: time taken to knockdown 90% of test insects; for pest or weed control at 250 ppm: topical, Tetramethrin: mean of 27 observations
Experimental: The test compound was dissolved in acetone (2 cm³) and the solution diluted to a concentration of 250 ppm with kerosene. 1 cm³ Of this preparation was sprayed onto 10 Blattella germanica (adult males) held in a netted plastic pot in a Burkhard potter Tower. Assessment of knockdown was performed at intervals of 5 minutes up to a total of 20 minutes. On removal from the Burkhard Potter Tower, the insects were held at 25°C and 65% relative humidity for 48 hours, and an assessment of mortality performed. Each test was repeated.
In some tests, additional knockdown assessment was performed at intervals of 1, 2, 3 and 4 minutes, and KT₅₀ and KT₉₀ values determined (the time taken, in minutes, to knockdown 50% and 90% respectively of test insects).

[7] = system: Musca domestica (houseflies - adults); experiment: insecticidal mortality test, contact, cotton wool/sugar; conditions: read-out: grading of mortality, MD
Experimental: as §1, §2, §3, §4

[8] = system: Spodoptera exigua (lesser army worm - larvae); experiment: insecticidal mortality test, residual, cotton leaf; conditions: read-out: grading of mortality, SP
Experimental: as §1, §2, §3, §4

[9] = system: Heliothis virescens (tobacco budworm - larvae); experiment: insecticidal mortality test, residual, cotton leaf; conditions: read-out: grading of mortality, HV
Experimental: as §1, §2, §3, §4

[10] = 48 h, 100 ppm, contact, rice plant, test duration of 2 days (footnote +)
[11] = 48 h, 100 ppm, residual, cotton leaf, test duration of 2 days (footnote +)
[12] = 72 h, 100 ppm, contact, rice plant, 3 days
[13] = 72 h, 100 ppm, residual, cotton leaf, 3 days

CC1(C)C(/C=C(\F)C(F)(F)F)C1C(=O)OCc1c(F)c(F)c(CN=[N+]=[N-])c(F)c1F (mixture of isomers) [Product XXVIII, 4-(azidomethyl)-2,3,5,6-tetrafluorobenzyl (1RS, cis/trans)-3-(Z-2,3,3,3-tetrafluoroprop-1-en-1-yl)2,2-dimethylcyclopropanecarboxylate]
9.3 min and 18.3 min: KT₉₀ ([6]; 250 ppm spray)
70%: % KNOCKDOWN OBSERVED 15 min ([6]; 250 ppm in kerosene, 1 cm3 sprayed onto 10 adult males, 15 min, tests 1 and 2 are repeats)
80 to 100%: mortality at 100 ppm [1, 10] | mortality at 100 ppm ([3]; 48 h) | mortality at 100 ppm [4] | mortality at 100 ppm [5] | mortality at 100 ppm ([7]; 72 h) | mortality at 100 ppm ([8]; 48 h) | mortality at 100 ppm [9, 11]
< 50%: mortality at 100 ppm [2]
6.4 min and 12.6 min: KT₅₀ ([6]; 250 ppm spray)
100%: % KNOCKDOWN OBSERVED 20 min ([6]; 250 ppm in kerosene, 1 cm3 sprayed onto 10 adult males, 20 min, tests 1 and 2 are repeats) | mortality at 250 ppm ([6]; Blattella germanica, 48 h, 250 ppm spray, insects held at 25°C and 65% relative humidity for 48 hours, tests 1 and 2 are repeats, read-out: % MORTALITY 48 hrs)

CC1(C)C(C=C(Cl)C(F)(F)F)C1C(=O)OCc1c(F)c(F)c(COC=O)c(F)c1F (racemic) [Product VIII, 4-(Formyloxymethyl)-2,3,5,6-tetrafluoromethyl (1RS, cis)-3-(Z-2-chloro-3,3,3-trifluoroprop-1-en-1-yl)-2,2-dimethylcyclopropanecarboxylate]
80 to 100%: mortality at 100 ppm [1, 12] | mortality at 100 ppm ([3]; 72 h) | mortality at 100 ppm ([7]; 24 h) | mortality at 100 ppm ([8]; 72 h) | mortality at 100 ppm [9, 13]
A (A indicates 80-100% mortality): grading of mortality, Tua ([2]; 100 ppm, 3 days, listed as VIII, 4320 min)

CC1(C)C(C=C(Cl)C(F)(F)F)C1C(=O)OCc1c(F)c(F)c(CCC#N)c(F)c1F (racemic) [Product XXI, 4-(2-cyanoethyl)-2,3,5,6-tetrafluorobenzyl (1RS, cis)-3-(Z-2-chloro-3,3,3-trifluoroprop-1-en-1-yl)-2,2-dimethylcyclopropanecarboxylate]
4.2 min and 3.6 min: KT₅₀ ([6]; 250 ppm spray)
8.8 min and 8.2 min: KT₉₀ ([6]; 250 ppm spray)
60%: pest or weed control at 250 ppm ([6]; Blattella germanica, 5 min, 250 ppm in kerosene, 1 cm3 sprayed onto 10 adult males, 5 min, tests 1 and 2 are repeats, read-out: % KNOCKDOWN OBSERVED 5 min)
60% and 100%: % MORTALITY 48 hrs ([6]; 250 ppm spray, insects held at 25°C and 65% relative humidity for 48 hours, tests 1 and 2 are repeats, 2880 min)
80 to 100%: mortality at 100 ppm [1, 10] | mortality at 100 ppm [4] | mortality at 100 ppm [9, 11]
100%: pest or weed control at 250 ppm ([6]; Blattella germanica, 10 min, 250 ppm in kerosene, 1 cm3 sprayed onto 10 adult males, 10 min, tests 1 and 2 are repeats, read-out: % KNOCKDOWN OBSERVED 10 min)
< 50%: mortality at 100 ppm [2] | mortality at 100 ppm ([3]; 48 h) | mortality at 100 ppm [5] | mortality at 100 ppm ([7]; 72 h) | mortality at 100 ppm ([8]; 48 h)

CC1(C)[C@H](C(=O)OCc2c(F)c(F)c(CBr)c(F)c2F)[C@@H]1/C=C(\Cl)C(F)(F)F (relative stereo) [Product I, 4-(Bromomethyl)-2,3,5,6-tetrafluorobenzyl (1RS,cis)-3-(Z-2-chloro-3,3,3-trifluoroprop-1-en-1-yl)-2,2-dimethyl-cyclopropanecarboxylate]
< 50%: mortality at 100 ppm [2] | mortality at 100 ppm ([7]; 24 h)
80 to 100%: mortality at 100 ppm ([3]; 72 h)
50 to 79%: mortality at 100 ppm ([9]; 72 h)

CC1(C)[C@H](C(=O)OCc2c(F)c(F)c(COS(C)(=O)=O)c(F)c2F)[C@@H]1/C=C(\Cl)C(F)(F)F (relative stereo) [Product IV, 4-(methanesulphonyloxymethyl)-2,3,5,6-tetrafluorobenzyl (1RS,cis)-3-(Z-2-chloro-3,3,3-trifluoroprop-1-en-1-yl)-2,2-dimethylcyclopropanecarboxylate]
80 to 100%: mortality at 100 ppm ([1]; 72 h) | mortality at 100 ppm [2] | mortality at 100 ppm [4] | mortality at 100 ppm [5] | mortality at 100 ppm ([8]; 72 h) | mortality at 100 ppm ([9]; 72 h)
< 50%: mortality at 100 ppm ([3]; 72 h) | mortality at 100 ppm ([7]; 24 h)

CC1(C)[C@H](C(=O)OCc2c(F)c(F)c(COC(=O)C(F)(F)F)c(F)c2F)[C@@H]1/C=C(\Cl)C(F)(F)F (relative stereo) [Product V, 4-(trifluoroacetoxymethyl)-2,3,5,6-tetrafluorobenzyl (1RS,cis)-3-(Z-2-chloro-3,3,3-trifluoroprop-1-en-1-yl)-2,2-dimethylcyclopropanecarboxylate]
80 to 100%: mortality at 100 ppm ([1]; 72 h) | mortality at 100 ppm [2] | mortality at 100 ppm ([3]; 72 h) | mortality at 100 ppm [4] | mortality at 100 ppm [5] | mortality at 100 ppm ([7]; 24 h) | mortality at 100 ppm ([8]; 72 h) | mortality at 100 ppm ([9]; 72 h)

COC(=O)OCc1c(F)c(F)c(COC(=O)[C@@H]2[C@H](/C=C(\Cl)C(F)(F)F)C2(C)C)c(F)c1F (relative stereo) [Product VII, 4-(Methoxycarbonyloxymethyl)-2,3,5,6-tetrafluorobenzyl (1RS,cis)-3-(Z-2-chloro-3,3,3-trifluoroprop-1-en-1-yl)-2,2-dimethylcyclopropanecarboxylate]
80 to 100%: mortality at 100 ppm ([1]; 72 h) | mortality at 100 ppm [2] | mortality at 100 ppm ([3]; 72 h) | mortality at 100 ppm [4] | mortality at 100 ppm [5] | mortality at 100 ppm ([8]; 72 h) | mortality at 100 ppm ([9]; 72 h)
< 50%: mortality at 100 ppm ([7]; 24 h)

CC#CCOCc1c(F)c(F)c(COC(=O)[C@@H]2[C@H](/C=C(\Cl)C(F)(F)F)C2(C)C)c(F)c1F (relative stereo) [Product XIX, 4-[(But-2-yn-1-yl)oxymethyl]-2,3,5,6-tetrafluorobenzyl (1RS,cis)-3-(Z-2-chloro-3,3,3-trifluoroprop-1-en-1-yl)-2,2-dimethylcyclopropanecarboxylate]
50 to 79%: mortality at 100 ppm [2] | mortality at 100 ppm ([7]; 24 h)
80 to 100%: mortality at 100 ppm ([1]; 72 h) | mortality at 100 ppm ([3]; 72 h) | mortality at 100 ppm [4] | mortality at 100 ppm [5] | mortality at 100 ppm ([8]; 72 h) | mortality at 100 ppm ([9]; 72 h)

C#CCOCc1c(F)c(F)c(COC(=O)[C@@H]2[C@H](/C=C(\Cl)C(F)(F)F)C2(C)C)c(F)c1F (relative stereo) [Product XX, 4-[(Prop-2-yn-1-yl)oxymethyl]-2,3,5,6-tetrafluorobenzyl (1RS,cis)-3-(Z-2-chloro-3,3,3-trifluoroprop-1-en-1-yl)-2,2-dimethylcyclopropanecarboxylate]
80 to 100%: mortality at 100 ppm ([1]; 72 h) | mortality at 100 ppm [2] | mortality at 100 ppm ([3]; 72 h) | mortality at 100 ppm [4] | mortality at 100 ppm [5] | mortality at 100 ppm ([7]; 24 h) | mortality at 100 ppm ([8]; 72 h) | mortality at 100 ppm ([9]; 72 h)

C#CC(C)OCc1c(F)c(F)c(COC(=O)C2C(C=C(Cl)C(F)(F)F)C2(C)C)c(F)c1F (stereo not drawn) [Product XVIII, (Rs)-4-[(l-methylprop-2-yn-1-yl)oxymethyl]-2,3,5,6-tetrafluorobenzyl (1RS,cis)-3-(Z-2-chloro-3,3,3-trifluoroprop-1-en-1-yl)-2,2-dimethylcyclopropanecarboxylate]
80 to 100%: mortality at 100 ppm [1, 12] | mortality at 100 ppm ([3]; 72 h) | mortality at 100 ppm [4] | mortality at 100 ppm [5] | mortality at 100 ppm ([7]; 24 h) | mortality at 100 ppm ([8]; 72 h) | mortality at 100 ppm [9, 13]
< 50%: mortality at 100 ppm [2]
